Read-outs that look alike come from different tables or passages of the source.
Experiment: logP(HCOOH) by HPLC
Format: physicochemical
[1] = HPLC on reversed phase columns, pH 2.7, 0.1% formic acid in water / acetonitrile, linear gradient 10% to 95% acetonitrile, EEC directive 79/831 Annex V.A8

Structure (SMILES)	log p [1]	also measured
CON=C(C(=O)Nc1nc(CON=C(c2ccccc2)n2nnnc2C)cs1)c1ccc(Br)cc1 [Example 29]	4.41	
CON=C(C(=O)Nc1nc(CON=C(c2ccccc2)n2nnnc2C)cs1)c1cccc(Cl)c1Cl [Example 30]	4.32	
CC(=NOCC(=O)Nc1cccc(CON=C(c2ccccc2)c2nnnn2C)n1)C(C)(C)C [Example 31]	4.23	
C#CCOCC(=O)Nc1nc(CO/N=C(/c2ccccc2)n2nnnc2C)cs1 [Example 49]	2.69	
Cn1nnnc1/C(=N\OCc1cccc(NC(=O)OC2CC3CCC2(C)C3(C)C)n1)c1ccccc1 (centres unmarked) [Example 55]	5.32	
Cn1nnnc1/C(=N\OCc1cccc(NC(=O)OCC2CCCCC2)n1)c1ccccc1 [Example 57]	4.72	
Cn1nnnc1/C(=N\OCc1cccc(NC(=O)OCC2CC2)n1)c1ccccc1 [Example 58]	3.46	
Cn1nnnc1/C(=N\OCc1cccc(NC(=O)OCCC2CCCCC2)n1)c1ccccc1 [Example 59]	5.11	
CC(CC1CC1)OC(=O)Nc1cccc(CO/N=C(/c2ccccc2)c2nnnn2C)n1 (centres unmarked) [Example 60, 1-cyclopropylpropan-2-yl {6-[({[(Z)-(1-methyl-1H-tetrazol-5-yl)(phenyl)methylene]amino}oxy)methyl]pyridin-2-yl}carbamate]		chromatographic logP (reversed phase HPLC column, HPLC on reversed phase columns, pH 2.7, 0.1% formic acid in water / acetonitrile, linear gradient 10% to 95% acetonitrile, EEC directive 79/831 Annex V.A8, read-out: log p): 4.15; chromatographic logP (reversed phase HPLC columns, pH 2.7, HCOOH, read-out: logP(HCOOH)): 4.15
Cc1nnnn1C(=NOCc1csc(NC(=O)OCCCC2CCCC2)n1)c1ccccc1 [Example 65]	4.77	
Cc1nnnn1C(=NOCc1csc(NC(=O)OCC2CCCC2)n1)c1ccccc1 [Example 66]	3.99	
Cc1nnnn1C(=NOCc1csc(NC(=O)OCCCC2CCCCC2)n1)c1ccccc1 [Example 67]	5.11	
Cc1nnnn1C(=NOCc1csc(NC(=O)OCCCC2CC2)n1)c1ccccc1 [Example 68]	3.9	
Cn1nnnc1C(=NOCc1cccc(NC(=O)OCCCC2CCCC2)n1)c1ccccc1 [Example 69]	5.06	
Cn1nnnc1C(=NOCc1cccc(NC(=O)OCC2CCCC2)n1)c1ccccc1 [Example 70]	4.25	
Cn1nnnc1C(=NOCc1cccc(NC(=O)OCCCC2CCCCC2)n1)c1ccccc1 [Example 71]	5.45	
Cn1nnnc1C(=NOCc1cccc(NC(=O)OCCCC2CC2)n1)c1ccccc1 [Example 72]	4.15	
Cn1nnnc1C(=NOCc1csc(NC(=O)OCCCC2CCCC2)n1)c1ccccc1 [Example 73]	4.7	
Cn1nnnc1C(=NOCc1csc(NC(=O)OCC2CCCC2)n1)c1ccccc1 [Example 74]	3.92	
Cn1nnnc1C(=NOCc1csc(NC(=O)OCCCC2CCCCC2)n1)c1ccccc1 [Example 75]	5.03	
Cn1nnnc1C(=NOCc1csc(NC(=O)OCCCC2CC2)n1)c1ccccc1 [Example 76]	3.85	
CC(OC1CCCCCC1)C(=O)Nc1cccc(CON=C(c2ccccc2)c2nnnn2C)n1 (centres unmarked) [Example 100]	4.8	
Cc1nnnn1C(=NOCc1csc(NC(=O)COC2CC(C)CCC2C(C)C)n1)c1ccccc1 (centres unmarked) [Example 106]	5.48	
Cc1nnnn1C(=NOCc1cccc(NC(=O)COC2CC(C)CCC2C(C)C)n1)c1ccccc1 (centres unmarked) [Example 108]	5.95	
C=C(C)C(C)=CCC(C)OCC(=O)Nc1nc(CON=C(c2ccccc2)n2nnnc2C)cs1 (centres unmarked) [compound 110]	4.56	
C=CCCCOCC(=O)Nc1nc(CON=C(c2ccccc2)n2nnnc2C)cs1 [compound 111]	3.55	

Structure (SMILES)	log p [1]	also measured
C=CCCCOCC(=O)Nc1cccc(CON=C(c2ccccc2)n2nnnc2C)n1 [compound 112]	3.83	
C=C(C)C(C)=CCC(C)OCC(=O)Nc1cccc(CON=C(c2ccccc2)c2nnnn2C)n1 (centres unmarked) [compound 113]	4.73	
C#CCOC(C(=O)Nc1nc(CON=C(c2ccccc2)n2nnnc2C)cs1)C(C)C (centres unmarked) [compound 114]	3.46	
C#CCOC(CC)C(=O)Nc1nc(CON=C(c2ccccc2)n2nnnc2C)cs1 (centres unmarked) [compound 115]	3.11	
C#CCOC(CC)C(=O)Nc1nc(CON=C(c2ccccc2)c2nnnn2C)cs1 (centres unmarked) [compound 116]	3.08	
C#CCOC(C(=O)Nc1nc(CON=C(c2ccccc2)c2nnnn2C)cs1)C(C)C (centres unmarked) [compound 117]	3.44	
Cn1nnnc1C(=NOCc1csc(NC(=O)COCC#C[Si](C)(C)C)n1)c1ccccc1 [compound 118]	3.7	
C#CCOC(CC)C(=O)Nc1cccc(CON=C(c2ccccc2)n2nnnc2C)n1 (centres unmarked) [compound 119]	3.33	
C#CCOC(C(=O)Nc1cccc(CON=C(c2ccccc2)n2nnnc2C)n1)C(C)C (centres unmarked) [compound 120]	3.7	
C#CCOC(CC)C(=O)Nc1cccc(CON=C(c2ccccc2)c2nnnn2C)n1 (centres unmarked) [compound 121]	3.27	
C#CCOC(C(=O)Nc1cccc(CON=C(c2ccccc2)c2nnnn2C)n1)C(C)C (centres unmarked) [compound 122]	3.63	
CCON=C(C(=O)Nc1nc(CON=C(c2ccccc2)n2nnnc2C)cs1)c1ccc(Cl)cc1 [compound 123]	4.61	
CON=C(C(=O)Nc1nc(CON=C(c2ccccc2)n2nnnc2C)cs1)c1ccc(C)cc1 [compound 124]	4.13	
CON=C(C(=O)Nc1nc(CON=C(c2ccccc2)n2nnnc2C)cs1)c1ccc(C)cc1 [compound 125]	3.85	
CCON=C(C(=O)Nc1nc(CON=C(c2ccccc2)n2nnnc2C)cs1)c1ccc(C)cc1 [compound 126]	4.13	
CCON=C(C(=O)Nc1nc(CON=C(c2ccccc2)n2nnnc2C)cs1)c1ccc(C)cc1 [compound 127]	4.49	
CCON=C(C(=O)Nc1nc(CON=C(c2ccccc2)c2nnnn2C)cs1)c1ccc(Cl)cc1 [compound 128]	4.56	
CON=C(C(=O)Nc1nc(CON=C(c2ccccc2)c2nnnn2C)cs1)c1ccc(C)cc1 [compound 129]	4.05	
CON=C(C(=O)Nc1nc(CON=C(c2ccccc2)c2nnnn2C)cs1)c1ccc(C)cc1 [compound 130]	3.79	
CON=C(C(=O)Nc1cccc(CON=C(c2ccccc2)n2nnnc2C)n1)c1ccccc1Cl [compound 131]	4.18	
CON=C(C(=O)Nc1cccc(CON=C(c2ccccc2)n2nnnc2C)n1)c1ccc(Cl)cc1 [compound 132]	4.69	
CCON=C(C(=O)Nc1cccc(CON=C(c2ccccc2)n2nnnc2C)n1)c1ccc(Cl)cc1 [compound 133]	4.93	
CON=C(C(=O)Nc1cccc(CON=C(c2ccccc2)n2nnnc2C)n1)c1ccc(C)cc1 [compound 134]	4.44	
CON=C(C(=O)Nc1cccc(CON=C(c2ccccc2)n2nnnc2C)n1)c1ccc(Cl)cc1 [compound 135]	4.51	
CON=C(C(=O)Nc1cccc(CON=C(c2ccccc2)n2nnnc2C)n1)c1ccc(F)cc1 [compound 136]	4.11	
CCON=C(C(=O)Nc1cccc(CON=C(c2ccccc2)c2nnnn2C)n1)c1ccc(Cl)cc1 [compound 137]	4.83	

Structure (SMILES)	log p [1]	also measured
CON=C(C(=O)Nc1cccc(CON=C(c2ccccc2)c2nnnn2C)n1)c1ccc(C)cc1 [compound 138]	4.27	
C=C=CCCC(=O)Nc1nc(CON=C(c2ccccc2)n2nnnc2C)cs1 [compound 139]	3.09	
C=C=CCCCOC(=O)Nc1nc(CON=C(c2ccccc2)c2nnnn2C)cs1 [compound 140]	3.69	
C=C=CCCC(=O)Nc1cccc(CON=C(c2ccccc2)n2nnnc2C)n1 [compound 141]	3.23	
C=C=CCCCOC(=O)Nc1cccc(CON=C(c2ccccc2)n2nnnc2C)n1 [compound 142]	4.01	
Cc1nnnn1C(=NOCc1cccc(NC(=O)OC2CC3CCC2(C)C3(C)C)n1)c1ccccc1 (centres unmarked) [compound 143]	5.3	
Cc1nnnn1C(=NOCc1csc(NC(=O)OCCC2CC2)n1)c1ccccc1 [compound 145]	3.5	
Cc1nnnn1C(=NOCc1csc(NC(=O)OCCC2CCCC2)n1)c1ccccc1 [compound 146]	4.33	
Cc1nnnn1C(=NOCc1csc(NC(=O)OC(C)C2CCCCC2)n1)c1ccccc1 (centres unmarked) [compound 147]	4.66	
Cc1nnnn1C(=NOCc1csc(NC(=O)OC(C)C2CCCC2)n1)c1ccccc1 (centres unmarked) [compound 148]	4.3	
Cn1nnnc1C(=NOCc1csc(NC(=O)OCCC2CC2)n1)c1ccccc1 [compound 149]	3.46	
Cn1nnnc1C(=NOCc1csc(NC(=O)OCCC2CCCC2)n1)c1ccccc1 [compound 150]	4.26	
CC(OC(=O)Nc1nc(CON=C(c2ccccc2)c2nnnn2C)cs1)C1CCCCC1 (centres unmarked) [compound 151]	4.58	
CC(OC(=O)Nc1nc(CON=C(c2ccccc2)c2nnnn2C)cs1)C1CCCC1 (centres unmarked) [compound 152]	4.25	
Cc1nnnn1C(=NOCc1cccc(NC(=O)OCCC2CC2)n1)c1ccccc1 [compound 155]	3.81	
Cc1nnnn1C(=NOCc1cccc(NC(=O)OCCC2CCCC2)n1)c1ccccc1 [compound 156]	4.71	
Cc1nnnn1C(=NOCc1cccc(NC(=O)OC(C)C2CCCCC2)n1)c1ccccc1 (centres unmarked) [compound 157]	5.08	
Cc1nnnn1C(=NOCc1cccc(NC(=O)OC(C)C2CCCC2)n1)c1ccccc1 (centres unmarked) [compound 158]	4.71	
Cn1nnnc1C(=NOCc1cccc(NC(=O)OCCC2CC2)n1)c1ccccc1 [compound 159]	3.72	
Cn1nnnc1C(=NOCc1cccc(NC(=O)OCCC2CCCC2)n1)c1ccccc1 [compound 160]	4.61	
CC(OC(=O)Nc1cccc(CON=C(c2ccccc2)c2nnnn2C)n1)C1CCCCC1 (centres unmarked) [compound 161]	4.98	
CC(OC(=O)Nc1cccc(CON=C(c2ccccc2)c2nnnn2C)n1)C1CCCC1 (centres unmarked) [compound 162]	4.61	
Cn1nnnc1C(=NOCc1cccc(NC(=O)OCC2CCC2)n1)c1ccccc1 [compound 163]	3.92	
CC(OC1CCCCC1)C(=O)Nc1nc(CON=C(c2ccccc2)c2nnnn2C2CC2)cs1 (centres unmarked) [compound 164]	4.53	

— patent US20130012546A1 (priority 2009, published 2013)
